Experimental findings from paper PMC9570898, “Comparing Variants of the Cell-Penetrating Peptide sC18 to Design Peptide-Drug Conjugates” (Molecules, 2022) are described below.

No end group written: not given here.

The test system of series [1] is HEK293 cells. The experiment in a line: Cytotoxicity (resazurin) assay in HEK293 cells. Format: cell-based, human. The note with it: 24 h. For orientation: The colour change of resazurin is a common sign of viable cells or microbes.
For series [2], the system named is HeLa cells. The series can be described thus: Cytotoxicity (resazurin) assay in HeLa cells. The note with it: 24 h, 25 µM peptide, resazurin assay. The method, then:
For cell viability assay, cells were (15,000 HeLa, 17,000 MCF-7 and 12,000 HFF-1 cells per well) seeded onto a 96-well plate and grown to 80–90% confluency. Cells were incubated with several peptide concentrations in a serum-free growth medium for 24 h under standard growth conditions. For the positive control, cells were treated with 70% EtOH for 7 min. After washing with DPBS, resazurin solution (10% in serum-free media, v/v) was incubated with the cells for 1 h under standard growth conditions. The cell viability was determined relative to untreated cells by measurement of the resorufin product at 595 nm (λex = 550 nm) on a Tecan infinite M200 plate reader (Tecan Group AG, Männedorf, Switzerland).
Figure 2 (A,B): Cytotoxicity profiles of the peptides in HeLa and HEK-293 cells. Cells were cultured and incubated at pH 7.4 for 24 h with different concentrations of peptide solutions. Untreated cells served as negative control; cells treated with 70% ethanol as positive control. Values from the positive control were subtracted from all data, and the untreated cells were set to 100%; assays were performed with n = 3 in triplicate. (C): Flow cytometry analysis of HeLa or HEK-293 cells after incubating 1 and 10 µM peptide solutions for 30 min at 37 °C; assays were conducted in triplicate n = 3. (D): Confocal laser scanning microscopy analysis of 10 µM CF-labeled peptides after 30 min of incubation in HeLa cells. Green: CF-labeled peptides; blue: Hoechst 33342 nuclear stain; scale bar is 10 µm.
Figure 5 (A): Cytotoxicity assay using HFF-1 cells. Different PDC concentrations were incubated with the cells for 24 h at 37 °C and a resazurin assay was conducted. (B): Dose-response curves for peptide drug conjugates were obtained using the resazurin assay. For this, HeLa cells were treated with various conjugate concentrations (2.5–70 µM) for 24 h at 37 °C. (C): Quantification of PDC internalization in HeLa cells; 10 µM PDC solutions were incubated with cells for 30 min at 37 °C and cells were inspected using a flow cytometer; assays were conducted in triplicate n = 3.

For orientation: cell viability means a per cent measure of how many cells are alive, often set against a control. High values mean less harm to the cells, low ones more harm to the cells. For the substance RLRKLLRKFLRK-NH2 [sC18*^R,L], the “concentration at which toxic effect started” value in series [1] is 50 µM. In addition, in series [2], the “cell viability at 25 µM” value was approximately 35%.
